Results taken from the supplement of paper PMC9663587.

Key:
Neratinib/HKI272 = compound: CCOc1cc2ncc(C#N)c(Nc3ccc(OCc4ccccn4)c(Cl)c3)c2cc1NC(=O)/C=C/CN(C)C [Neratinib/HKI272]; assay: increase in dead-cell fraction, 72 h; higher = more death;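 note: breast cancer cell lines in 384-well plates, stained with Hoechst plus LIVE/DEAD far red dye and imaged, cells above an LDR intensity threshold counted dead, Hoechst-negative corpses included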
[1] = compound: CC(=O)c1c(C)c2cnc(Nc3ccc(N4CCNCC4)cn3)nc2n(C2CCCC2)c1=O; assay: as above
[2] = compound: CCN1CCN(Cc2ccc(Nc3ncc(F)c(-c4cc(F)c5nc(C)n(C(C)C)c5c4)n3)nc2)CC1; assay: as above
Flavopiridol = compound: CN1CC[C@H](c2c(O)cc(O)c3c(=O)cc(-c4ccccc4Cl)oc23)[C@H](O)C1 [Flavopiridol]; assay: as above
LEE011/Ribociclib = compound: CN(C)C(=O)c1cc2cnc(Nc3ccc(N4CCNCC4)cn3)nc2n1C1CCCC1 [LEE011/Ribociclib]; assay: as above
BSJ-03-123 = compound: CC(=O)c1c(C)c2cnc(Nc3ccc(N4CCN(CCOCCOCCOCCNC(=O)COc5cccc6c5C(=O)N(C5CCC(=O)NC5=O)C6=O)CC4)cn3)nc2n(C2CCCC2)c1=O [BSJ-03-123]; assay: as above
[3] = compound: CCc1cnn2c(NCc3ccc[n+]([O-])c3)cc(N3CCCC[C@H]3CCO)nc12; assay: as above
THZ1 = compound: CN(C)C/C=C/C(=O)Nc1ccc(C(=O)Nc2cccc(Nc3ncc(Cl)c(-c4c[nH]c5ccccc45)n3)c2)cc1 [THZ1]; assay: as above
[4] = compound: CC(=O)Nc1cccc(-n2c(=O)n(C3CC3)c(=O)c3c(Nc4ccc(I)cc4F)n(C)c(=O)c(C)c32)c1
[5] = compound: CCC1=CN=CN=C1N2CCN(CC2)CC3=NC4=C(N3)C=C(C=C4)C(F)(F)F
BSJ-01-175 = compound: CN(C)C/C=C/C(=O)Nc1ccc(O[C@@H]2CCC[C@@H](Nc3ncc(Cl)c(-c4c[nH]c5ccccc45)n3)C2)cc1 [BSJ-01-175]
[6] = compound: CCN1CCN(Cc2ccc(Nc3ncc(F)c(-c4cc(F)c5nc(C)n(C(C)C)c5c4)n3)nc2)CC1
[7] = compound: COc1ccc2c(c1)[C@]1(C[C@H]1c1ccc3c(/C=C/c4ccc(CN5C[C@@H](C)O[C@@H](C)C5)cc4)n[nH]c3c1)C(=O)N2
AZD2014 = compound: CNC(=O)c1cccc(-c2ccc3c(N4CCOC[C@@H]4C)nc(N4CCOC[C@@H]4C)nc3n2)c1 [AZD2014]
AZD7762 = compound: NC(=O)Nc1cc(-c2cccc(F)c2)sc1C(=O)N[C@H]1CCCNC1 [AZD7762]
Ipatasertib/GDC0068 = compound: CC(C)NC[C@@H](C(=O)N1CCN(c2ncnc3c2[C@H](C)C[C@H]3O)CC1)c1ccc(Cl)cc1 [Ipatasertib/GDC0068]
Tivantinib/ARQ197 = compound: O=C1NC(=O)[C@@H](c2cn3c4c(cccc24)CCC3)[C@@H]1c1c[nH]c2ccccc12 [Tivantinib/ARQ197]
Vorinostat = compound: O=C(CCCCCCC(=O)Nc1ccccc1)NO [Vorinostat]
AZD6738 = compound: C[C@@H]1COCCN1c1cc(C2([S@](C)(=N)=O)CC2)nc(-c2cc[nH]c3nccc2-3)n1 [AZD6738]
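Throughout, for GR50, 72 h: breast cancer and non-malignant breast epithelial cell lines, Deep Dye Drop or Dye Drop imaging, nine half-log doses, GR normalized to time-zero plates and DMSO-only controls.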

HCC70
increase in dead-cell fraction (Neratinib/HKI272; 0.0003162 µM): 0.0098
increase in dead-cell fraction (Neratinib/HKI272; 0.001 µM): 0.0142
increase in dead-cell fraction (Neratinib/HKI272; 0.003162 µM): 0.015
increase in dead-cell fraction (Neratinib/HKI272; 0.01 µM): 0.0157
increase in dead-cell fraction (Neratinib/HKI272; 0.03162 µM): 0.0249
increase in dead-cell fraction (Neratinib/HKI272; 0.1 µM): 0.0312
increase in dead-cell fraction (Neratinib/HKI272; 0.3162 µM): 0.0482
increase in dead-cell fraction (Neratinib/HKI272; 1 µM): 0.0703
increase in dead-cell fraction (Neratinib/HKI272; 3.162 µM): 0.147
increase in dead-cell fraction ([1]; 0.0003162 µM): -0.0042
increase in dead-cell fraction ([1]; 0.001 µM): 0.0102
increase in dead-cell fraction ([1]; 0.003162 µM): -0.0045
increase in dead-cell fraction ([1]; 0.01 µM): 0.0054
increase in dead-cell fraction ([1]; 0.03162 µM): -0.0062
increase in dead-cell fraction ([1]; 0.1 µM): 0.012
increase in dead-cell fraction ([1]; 0.3162 µM): -0.0151
increase in dead-cell fraction ([1]; 1 µM): -0.0002
increase in dead-cell fraction ([1]; 3.162 µM): -0.0047
increase in dead-cell fraction ([2]; 0.001 µM): 0.0027
increase in dead-cell fraction ([2]; 0.003162 µM): -0.0178
increase in dead-cell fraction ([2]; 0.01 µM): -0.0021
increase in dead-cell fraction ([2]; 0.03162 µM): -0.0067
increase in dead-cell fraction ([2]; 0.1 µM): -0.0175
increase in dead-cell fraction ([2]; 0.3162 µM): -0.0179
increase in dead-cell fraction ([2]; 1 µM): -0.0058
increase in dead-cell fraction ([2]; 3.162 µM): 0.169
increase in dead-cell fraction ([2]; 10 µM): 0.639
increase in dead-cell fraction (Flavopiridol; 0.0001 µM): -0.003
increase in dead-cell fraction (Flavopiridol; 0.0003162 µM): -0.0033
increase in dead-cell fraction (Flavopiridol; 0.001 µM): -0.0119
increase in dead-cell fraction (Flavopiridol; 0.003162 µM): -0.0038
increase in dead-cell fraction (Flavopiridol; 0.01 µM): 0.0008
increase in dead-cell fraction (Flavopiridol; 0.03162 µM): 0.009
increase in dead-cell fraction (Flavopiridol; 0.1 µM): 0.0351
increase in dead-cell fraction (Flavopiridol; 0.3162 µM): 0.487
increase in dead-cell fraction (Flavopiridol; 1 µM): 0.401
increase in dead-cell fraction (LEE011/Ribociclib; 0.001 µM): -0.0029
increase in dead-cell fraction (LEE011/Ribociclib; 0.003162 µM): 0.0024
increase in dead-cell fraction (LEE011/Ribociclib; 0.01 µM): -0.0096
increase in dead-cell fraction (LEE011/Ribociclib; 0.03162 µM): -0.0087
increase in dead-cell fraction (LEE011/Ribociclib; 0.1 µM): -0.0125
increase in dead-cell fraction (LEE011/Ribociclib; 0.3162 µM): -0.0098
increase in dead-cell fraction (LEE011/Ribociclib; 1 µM): -0.0021
increase in dead-cell fraction (LEE011/Ribociclib; 3.162 µM): -0.0069
increase in dead-cell fraction (LEE011/Ribociclib; 10 µM): -0.0152
increase in dead-cell fraction (BSJ-03-123; 0.001 µM): -0.0022
increase in dead-cell fraction (BSJ-03-123; 0.003162 µM): -0.0076
increase in dead-cell fraction (BSJ-03-123; 0.01 µM): -0.0082
increase in dead-cell fraction (BSJ-03-123; 0.03162 µM): -0.0024
increase in dead-cell fraction (BSJ-03-123; 0.1 µM): 0.0042
increase in dead-cell fraction (BSJ-03-123; 0.3162 µM): -0.0019
increase in dead-cell fraction (BSJ-03-123; 1 µM): -0.0038
increase in dead-cell fraction (BSJ-03-123; 3.162 µM): 0.0046
increase in dead-cell fraction (BSJ-03-123; 10 µM): 0.317
increase in dead-cell fraction ([3]; 0.0001 µM): 0.0046
increase in dead-cell fraction ([3]; 0.0003162 µM): 0.0037
increase in dead-cell fraction ([3]; 0.001 µM): -0.003
increase in dead-cell fraction ([3]; 0.003162 µM): -0.0058
increase in dead-cell fraction ([3]; 0.01 µM): 0.0306
increase in dead-cell fraction ([3]; 0.03162 µM): 0.699
increase in dead-cell fraction ([3]; 0.1 µM): 0.734
increase in dead-cell fraction ([3]; 0.3162 µM): 0.721
increase in dead-cell fraction ([3]; 1 µM): 0.74
increase in dead-cell fraction (THZ1; 0.0001 µM): 0.0011
increase in dead-cell fraction (THZ1; 0.0003162 µM): 0.0017
increase in dead-cell fraction (THZ1; 0.001 µM): -0.0087
increase in dead-cell fraction (THZ1; 0.003162 µM): 0.0017
increase in dead-cell fraction (THZ1; 0.01 µM): 0.0017
increase in dead-cell fraction (THZ1; 0.03162 µM): 0.227
increase in dead-cell fraction (THZ1; 0.1 µM): 0.676
increase in dead-cell fraction (THZ1; 0.3162 µM): 0.872
increase in dead-cell fraction (THZ1; 1 µM): 0.868
GR50, 72 h [4]: 0.0019 µM
GR50, 72 h [5]: > 10 µM
GR50, 72 h (BSJ-01-175): 0.0192 µM
GR50, 72 h [6]: 1.9 µM
GR50, 72 h [7]: 0.00349 µM
GR50, 72 h (AZD2014): < 0.001 µM
GR50, 72 h (AZD7762): 0.0412 µM
GR50, 72 h (Ipatasertib/GDC0068): 0.14 µM
GR50, 72 h (Tivantinib/ARQ197): 0.335 µM
GR50, 72 h (Vorinostat): 0.413 µM
GR50, 72 h (AZD6738): 1.84 µM
